The NIST ThermoML archive (doi:10.1021/je0302001)
Numbers after ± are expanded uncertainties.

Assay: mn = molality of the nth substance listed, in mol/kg
Details: for surface tension liquid-gas: Ring tensiometer; for viscosity / speed of sound: 101.3 kPa, Liquid; for viscosity: Capillary tube (Ostwald / Ubbelohde) method

O=[N+]([O-])[O-].O=[N+]([O-])[O-].[Zn+2] [nitric acid, zinc salt] + O
Details | speed of sound [m/s] | surface tension liquid-gas [mN/m] | viscosity [mPa·s]
273.15 K, m1 = 0.0875 | 1413 ± 3.8 | – | –
273.15 K, m1 = 0.1329 | 1413.5 ± 3.8 | – | 1.863 ± 0.021
273.15 K, m1 = 0.2263 | – | 75.65 ± 0.96 | –
273.15 K, m1 = 0.2466 | 1422.7 ± 3.9 | – | 1.905 ± 0.022
273.15 K, m1 = 0.334 | – | 75.79 ± 0.96 | –
273.15 K, m1 = 0.3388 | 1429.7 ± 3.9 | – | 1.95 ± 0.022
273.15 K, m1 = 0.6111 | 1454.8 ± 3.9 | – | 2.081 ± 0.024
273.15 K, m1 = 0.6198 | – | 76.35 ± 0.97 | –
273.15 K, m1 = 0.6405 | 1457 ± 3.9 | – | 2.103 ± 0.024
273.15 K, m1 = 0.8228 | – | 77.03 ± 0.98 | –
273.15 K, m1 = 1.113 | 1500.1 ± 4 | – | 2.431 ± 0.028
273.15 K, m1 = 1.258 | 1516.9 ± 4.1 | – | 2.573 ± 0.03
273.15 K, m1 = 1.259 | – | 78.02 ± 1 | –
273.15 K, m1 = 1.549 | – | 78.63 ± 1 | –
273.15 K, m1 = 1.551 | 1544.4 ± 4.1 | – | 2.833 ± 0.033
273.15 K, m1 = 1.818 | – | 78.99 ± 1 | –
273.15 K, m1 = 1.906 | 1578.6 ± 4.2 | – | 3.306 ± 0.038
273.15 K, m1 = 2.145 | 1600.1 ± 4.2 | – | 3.662 ± 0.043
273.15 K, m1 = 2.222 | – | 80.42 ± 1 | –
273.15 K, m1 = 2.29 | 1612.6 ± 4.3 | – | 3.902 ± 0.046
273.15 K, m1 = 2.292 | 1612.3 ± 4.3 | – | –
273.15 K, m1 = 2.344 | 1617.4 ± 4.3 | – | 3.935 ± 0.046
273.15 K, m1 = 2.526 | – | 81.29 ± 1.1 | –
273.15 K, m1 = 2.721 | – | 81.96 ± 1.1 | –
273.15 K, m1 = 2.91 | 1663.1 ± 4.4 | – | 5.033 ± 0.059
273.15 K, m1 = 3.426 | – | 83.68 ± 1.1 | –
273.15 K, m1 = 3.472 | 1707.7 ± 4.5 | – | 6.559 ± 0.078
273.15 K, m1 = 4.011 | – | 85.35 ± 1.1 | –
273.15 K, m1 = 4.075 | 1740.8 ± 4.6 | – | 8.684 ± 0.1
273.15 K, m1 = 4.231 | – | 85.77 ± 1.1 | –
273.15 K, m1 = 4.817 | 1780.2 ± 4.7 | – | 12.49 ± 0.15
273.15 K, m1 = 5.133 | – | 87.84 ± 1.2 | –
273.15 K, m1 = 5.224 | 1794 ± 4.7 | – | 15.05 ± 0.18
278.15 K, m1 = 0.0875 | 1435.8 ± 3.9 | – | –
278.15 K, m1 = 0.1329 | 1436.3 ± 3.9 | – | 1.585 ± 0.018
278.15 K, m1 = 0.2466 | 1444.2 ± 3.9 | – | 1.626 ± 0.019
278.15 K, m1 = 0.3388 | 1450.4 ± 3.9 | – | 1.667 ± 0.019
278.15 K, m1 = 0.6111 | 1472.6 ± 4 | – | 1.788 ± 0.02
278.15 K, m1 = 0.6405 | 1474.8 ± 4 | – | 1.807 ± 0.021
278.15 K, m1 = 1.113 | 1514.5 ± 4.1 | – | 2.096 ± 0.024
278.15 K, m1 = 1.258 | 1530.4 ± 4.1 | – | 2.221 ± 0.026
278.15 K, m1 = 1.551 | 1555 ± 4.1 | – | 2.436 ± 0.028
278.15 K, m1 = 1.906 | 1586.2 ± 4.2 | – | 2.838 ± 0.033
278.15 K, m1 = 2.145 | 1606.1 ± 4.3 | – | 3.15 ± 0.037
278.15 K, m1 = 2.29 | 1618.1 ± 4.3 | – | 3.351 ± 0.039
278.15 K, m1 = 2.292 | 1617.3 ± 4.3 | – | –
278.15 K, m1 = 2.344 | 1622.2 ± 4.3 | – | 3.38 ± 0.04
278.15 K, m1 = 2.91 | 1664.7 ± 4.4 | – | 4.293 ± 0.051
278.15 K, m1 = 3.472 | 1703.6 ± 4.5 | – | 5.554 ± 0.066
278.15 K, m1 = 4.075 | 1737.6 ± 4.6 | – | 7.273 ± 0.087
278.15 K, m1 = 4.817 | 1772.3 ± 4.6 | – | 10.32 ± 0.12
278.15 K, m1 = 5.224 | 1786.4 ± 4.7 | – | 12.33 ± 0.15
283.15 K, m1 = 0.0875 | 1456.4 ± 3.9 | – | –
283.15 K, m1 = 0.1329 | 1455.8 ± 3.9 | – | 1.368 ± 0.016
283.15 K, m1 = 0.2263 | – | 74.42 ± 0.94 | –
283.15 K, m1 = 0.2466 | 1463.2 ± 3.9 | – | 1.406 ± 0.016
283.15 K, m1 = 0.334 | – | 74.63 ± 0.95 | –
283.15 K, m1 = 0.3388 | 1468.8 ± 3.9 | – | 1.444 ± 0.017
283.15 K, m1 = 0.6111 | 1487.8 ± 4 | – | 1.559 ± 0.018
283.15 K, m1 = 0.6198 | – | 75.26 ± 0.96 | –
283.15 K, m1 = 0.6405 | 1491.2 ± 4 | – | 1.571 ± 0.018
283.15 K, m1 = 0.8228 | – | 75.94 ± 0.97 | –
283.15 K, m1 = 1.113 | 1526.3 ± 4.1 | – | 1.827 ± 0.021
283.15 K, m1 = 1.258 | 1540.8 ± 4.1 | – | 1.936 ± 0.022
283.15 K, m1 = 1.259 | – | 77.01 ± 0.99 | –
283.15 K, m1 = 1.549 | – | 77.42 ± 1 | –
283.15 K, m1 = 1.551 | 1564 ± 4.2 | – | 2.13 ± 0.025
283.15 K, m1 = 1.818 | – | 78.05 ± 1 | –
283.15 K, m1 = 1.906 | 1592.7 ± 4.2 | – | 2.478 ± 0.029
283.15 K, m1 = 2.145 | 1611.1 ± 4.3 | – | 2.737 ± 0.032
283.15 K, m1 = 2.222 | – | 79.29 ± 1 | –
283.15 K, m1 = 2.29 | 1618.7 ± 4.3 | – | 2.901 ± 0.034
283.15 K, m1 = 2.292 | 1619.7 ± 4.3 | – | –
283.15 K, m1 = 2.344 | 1626.1 ± 4.3 | – | 2.932 ± 0.034
283.15 K, m1 = 2.526 | – | 80.48 ± 1.1 | –
283.15 K, m1 = 2.721 | – | 80.75 ± 1.1 | –
283.15 K, m1 = 2.91 | 1665.6 ± 4.4 | – | 3.705 ± 0.044
283.15 K, m1 = 3.426 | – | 82.59 ± 1.1 | –
283.15 K, m1 = 3.472 | 1701.3 ± 4.5 | – | 4.774 ± 0.057
283.15 K, m1 = 4.011 | – | 84.21 ± 1.1 | –
283.15 K, m1 = 4.075 | 1733.5 ± 4.6 | – | 6.175 ± 0.074
283.15 K, m1 = 4.231 | – | 84.55 ± 1.1 | –
283.15 K, m1 = 4.817 | 1765.9 ± 4.6 | – | 8.641 ± 0.1
283.15 K, m1 = 5.133 | – | 86.75 ± 1.2 | –
283.15 K, m1 = 5.224 | 1779.8 ± 4.7 | – | 10.24 ± 0.12
283.15 K, m1 = 5.797 | 1795 ± 4.7 | – | –
283.15 K, m1 = 6.245 | – | 88.17 ± 1.2 | –
288.15 K, m1 = 0.0875 | 1473.6 ± 4 | – | –
288.15 K, m1 = 0.1329 | 1473.1 ± 3.9 | – | 1.195 ± 0.014
288.15 K, m1 = 0.2466 | 1479.5 ± 4 | – | 1.229 ± 0.014
288.15 K, m1 = 0.3388 | 1484.8 ± 4 | – | 1.265 ± 0.015
288.15 K, m1 = 0.6111 | 1503 ± 4 | – | 1.368 ± 0.016
288.15 K, m1 = 0.6405 | 1505.2 ± 4 | – | 1.38 ± 0.016
288.15 K, m1 = 1.113 | 1537.3 ± 4.1 | – | 1.609 ± 0.019
288.15 K, m1 = 1.258 | 1550.2 ± 4.1 | – | 1.705 ± 0.02
288.15 K, m1 = 1.551 | 1571.7 ± 4.2 | – | 1.875 ± 0.022
288.15 K, m1 = 1.906 | 1598.9 ± 4.2 | – | 2.178 ± 0.025
288.15 K, m1 = 2.145 | 1615 ± 4.3 | – | 2.403 ± 0.028
288.15 K, m1 = 2.29 | 1625 ± 4.3 | – | 2.545 ± 0.03
288.15 K, m1 = 2.292 | 1623.1 ± 4.3 | – | –
288.15 K, m1 = 2.344 | 1629.2 ± 4.3 | – | 2.57 ± 0.03
288.15 K, m1 = 2.91 | 1666 ± 4.4 | – | 3.231 ± 0.038
288.15 K, m1 = 3.472 | 1699.5 ± 4.5 | – | 4.124 ± 0.049
288.15 K, m1 = 4.075 | 1729.1 ± 4.5 | – | 5.31 ± 0.064
288.15 K, m1 = 4.817 | 1761.2 ± 4.6 | – | 7.338 ± 0.089
288.15 K, m1 = 5.224 | 1769.8 ± 4.7 | – | 8.634 ± 0.11
288.15 K, m1 = 5.797 | 1786.4 ± 4.7 | – | –
288.15 K, m1 = 6.34 | 1797.7 ± 4.7 | – | –
293.15 K, m1 = 0.2263 | – | 73.17 ± 0.93 | –
293.15 K, m1 = 0.334 | – | 73.3 ± 0.93 | –
293.15 K, m1 = 0.6198 | – | 74.02 ± 0.94 | –
293.15 K, m1 = 0.8228 | – | 74.83 ± 0.96 | –
293.15 K, m1 = 1.259 | – | 75.92 ± 0.97 | –
293.15 K, m1 = 1.549 | – | 76.32 ± 0.98 | –
293.15 K, m1 = 1.818 | – | 76.87 ± 0.99 | –
293.15 K, m1 = 2.222 | – | 78.11 ± 1 | –
293.15 K, m1 = 2.526 | – | 79 ± 1 | –
293.15 K, m1 = 2.721 | – | 79.59 ± 1 | –
293.15 K, m1 = 3.426 | – | 81.48 ± 1.1 | –
293.15 K, m1 = 4.011 | – | 83.01 ± 1.1 | –
293.15 K, m1 = 4.231 | – | 83.39 ± 1.1 | –
